# According to PubChem BioAssay (NCI):
#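 Method: 48-hour compound exposure of cells in 96-well plates, five concentrations, linear interpolation of endpoints. TGI: concentration producing complete growth inhibition.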
# How the values were obtained:
# Test in all cases: NCI anticancer screen, dose series, 48 h
# HT29 colon = test system: HT29 colon
# HCT-116 colon = test system: HCT-116 colon
# DLD-1 colon = test system: DLD-1 colon
# SF-268 CNS = test system: SF-268 CNS
# HCC-2998 colon = test system: HCC-2998 colon
# M19-MEL melanoma = test system: M19-MEL melanoma
# SF-295 CNS = test system: SF-295 CNS
# CAKI-1 renal = test system: CAKI-1 renal
# COLO 205 colon = test system: COLO 205 colon
# SW-620 colon = test system: SW-620 colon
# UO-31 renal = test system: UO-31 renal
# LXFL 529 NSCLC = test system: LXFL 529 NSCLC
Structure (SMILES),TGI (HT29 colon),TGI (HCT-116 colon),TGI (DLD-1 colon),TGI (SF-268 CNS),TGI (HCC-2998 colon),TGI (M19-MEL melanoma),TGI (SF-295 CNS),TGI (CAKI-1 renal),TGI (COLO 205 colon),TGI (SW-620 colon),TGI (UO-31 renal),TGI (LXFL 529 NSCLC)
COC(=O)/C=C/c1cc(OC)c(OC)c(OC)c1,> 100 µM,> 100 µM,> 100 µM,> 100 µM,> 100 µM,> 100 µM,> 100 µM,> 100 µM,> 100 µM,> 100 µM,> 100 µM,> 100 µM
O=C(O)C(CO)NC(=O)n1c2ccccc2c2ccccc21 (centres undefined),> 100 µM,> 100 µM,> 100 µM,> 100 µM,> 100 µM,> 100 µM,> 100 µM,> 100 µM,> 100 µM,> 100 µM,–,> 100 µM
CC1(C)C=C(S(=O)(=O)c2ccccc2)Oc2ccccc2O1,> 100 µM,> 100 µM,–,> 100 µM,68.5 µM,–,> 100 µM,> 100 µM,35.1 µM,> 100 µM,86.2 µM,–
CCC(C)C(=O)OC1CC2(C)C(c3ccoc3)OC(=O)CC23OC2(C)OC34C(OC(=O)C(C)C)C3(O)C(OC(=O)C5(C)OC5C)C5(C)CC3(O)C(C)(C5CC(=O)OC)C14O2 (centres undefined),> 100 µM,> 100 µM,–,> 100 µM,> 100 µM,–,> 100 µM,> 100 µM,57.5 µM,> 100 µM,> 100 µM,–
O=C(N/N=C/c1cc(Br)cc(Br)c1[O-])c1ccccc1O.O=C(N/N=C/c1cc(Br)cc(Br)c1[O-])c1ccccc1O.[Fe+2],19.7 µM,10.6 µM,–,38.9 µM,12.5 µM,–,15.8 µM,34.5 µM,35.8 µM,19.7 µM,25.3 µM,–
Brc1ccc2c(-c3csc(-c4c[nH]c5ccc(Br)cc45)n3)c[nH]c2c1,3.35 µM,13.9 µM,–,13.2 µM,5.51 µM,–,10.9 µM,9.81 µM,> 26.7 µM,28.3 µM,14.4 µM,–
NC(=O)C(=CNC(=S)c1ccncc1)C(N)=O,> 100 µM,> 100 µM,–,> 100 µM,> 100 µM,–,> 100 µM,> 100 µM,> 100 µM,> 100 µM,> 100 µM,–
Cc1nc(C)c(Cc2ccccc2)o1,> 100 µM,> 100 µM,–,> 100 µM,> 100 µM,–,> 100 µM,> 100 µM,> 100 µM,> 100 µM,> 100 µM,–
NC(N)=Nc1ncccc1[N+](=O)[O-],> 100 µM,> 100 µM,> 100 µM,> 100 µM,> 100 µM,–,> 100 µM,> 100 µM,57.2 µM,> 100 µM,> 100 µM,–
C=CCOCCCCC(C(C)=O)C(=O)OC (centres undefined),> 100 µM,> 100 µM,> 100 µM,> 100 µM,> 100 µM,> 100 µM,> 100 µM,> 100 µM,> 100 µM,> 100 µM,> 100 µM,> 100 µM
COc1ccc2cc(NC(=O)N/N=C\c3ccc(Cl)cc3)ccc2c1,> 100 µM,> 100 µM,–,> 100 µM,> 100 µM,–,> 100 µM,> 100 µM,> 100 µM,> 100 µM,> 100 µM,–
CN(C)S(=O)(=O)Nc1nnc(S(N)(=O)=O)s1,> 100 µM,> 100 µM,–,> 100 µM,> 100 µM,–,> 100 µM,> 100 µM,> 100 µM,> 100 µM,> 100 µM,–
Nc1c(C(=O)c2ccc(Cl)cc2)[nH]c(NCc2ccccc2)c1C(=S)Nc1ccccc1,3.7 µM,3.31 µM,–,8.44 µM,1.98 µM,–,3.32 µM,18.6 µM,26.2 µM,3.63 µM,3.02 µM,–
CC(=S)N=Cc1c(O)cc(C)oc1=O,> 100 µM,> 100 µM,–,> 100 µM,> 100 µM,–,> 100 µM,> 100 µM,> 100 µM,> 100 µM,> 100 µM,–
Cc1nn(-c2cc(Cl)ccc2[N+](=O)[O-])c(C)c1Cl,> 100 µM,> 100 µM,–,> 100 µM,> 100 µM,–,> 100 µM,> 100 µM,> 100 µM,> 100 µM,> 100 µM,–
Brc1ccc2c(-c3csc(-c4c[nH]c5cc(Br)ccc45)n3)c[nH]c2c1,29.2 µM,32.3 µM,–,> 100 µM,> 100 µM,–,45.5 µM,> 100 µM,> 100 µM,66.5 µM,> 100 µM,–
COc1c(Br)cc(CC(N)=O)c(O)c1Br,> 100 µM,> 100 µM,> 100 µM,> 100 µM,> 100 µM,> 100 µM,> 100 µM,> 100 µM,> 100 µM,> 100 µM,> 100 µM,–
